One data set has as its target T1, human 5HT7 receptor (Homo sapiens, UniProt P34969).
T1 construct: purchased BioSignal Drug Discovery Technology, Montreal, Canada; host or cells: CHO cells (stably transfected), membranes
Kind of data set: 5-HT7 Receptor Binding Assay ([3H]LSD displacement, CHO cell membranes).

The structures appear in SMILES notation. Counter-ions that a name gives are not always drawn. Like-named read-outs stand apart in the source and are kept apart here.

T1 sequence (P34969 whole entry): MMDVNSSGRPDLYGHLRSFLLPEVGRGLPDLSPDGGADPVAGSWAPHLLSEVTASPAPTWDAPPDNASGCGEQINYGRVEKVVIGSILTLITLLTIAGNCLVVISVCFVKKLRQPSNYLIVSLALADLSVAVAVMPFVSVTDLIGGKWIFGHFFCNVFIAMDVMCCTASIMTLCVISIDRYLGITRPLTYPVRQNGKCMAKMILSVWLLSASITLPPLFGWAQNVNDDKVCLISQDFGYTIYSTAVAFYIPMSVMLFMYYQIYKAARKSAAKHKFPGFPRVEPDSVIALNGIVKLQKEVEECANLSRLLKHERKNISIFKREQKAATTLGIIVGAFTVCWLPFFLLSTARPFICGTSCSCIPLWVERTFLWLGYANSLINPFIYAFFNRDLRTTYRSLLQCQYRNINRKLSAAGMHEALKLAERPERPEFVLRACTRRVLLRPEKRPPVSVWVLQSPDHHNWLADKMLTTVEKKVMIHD

In general, melting point refers to the temperature, or range, at which the solid turns liquid. Take `NCCc1c[nH]c2cc3c(cc12)C(=O)N(Cc1ccccc1)CC3` (as salt: HCl) (hydrate or solvate): the melting point fell in the range of 262 to 263 °C.

Take `NCCc1c[nH]c2cc3c(cc12)C(=O)NCC3` (as salt: salt) (hydrate or solvate) [Compound 1, 3-(2-Amino-ethyl)-1,6,7,8-tetrahydro-pyrrolo[2,3-g]isoquinolin-5-one]: the melting point was in the range of 82 to 86 °C.

Usually Ki stands for the dissociation constant of the complex between target and ligand, obtained from inhibition or displacement. On human 5HT7 receptor, `NCCc1c[nH]c2cc3c(cc12)C(=O)NCC3` [Compound 1, 3-(2-Amino-ethyl)-1,6,7,8-tetrahydro-pyrrolo[2,3-g]isoquinolin-5-one] showed a Ki of 14 nM.

For the molecule `CN1CCN(C2=Nc3ccccc3Oc3ccc(Cl)cc32)CC1` [Loxapine, reference compound], the Ki at human 5HT7 receptor (displacement of [3H]LSD, cloned human 5-HT7 receptor membranes from CHO cells, value with 95% confidence interval, read-out: 5-HT7 binding Ki) came out at 43 nM.

These data come from US6432974B1, “Pyrrolo-isoquinoline and tetra-hydropyrrolo-isoquinoline derivatives and their use as mediators of the 5-HT7 receptor” (Wyeth, priority 2000, dated 2002).
